According to US8138314B2, “Compositions and methods of monoclonal and polyclonal antibodies specific for T cell subpopulations” (Beth Israel Deaconess Medical Center, Inc., priority 2000, dated 2012):

Key:
Assay type in all cases: cell-based, human
[1] = tested on: Vα24^+ Vβ11^+ invariant NK T cells; experiment: Ex vivo expansion of FACS purified Vα24^+ T cells with α-GalCer and autologous irradiated PBMCs, flow cytometry
Protocol: (§1) Peripheral blood (10-20 ml) was drawn in heparin containing tubes from healthy donors and prostate cancer patients who had given their informed consent. PBMCs were isolated using Ficoll-Paque (Amersham Pharmacia, Uppsala, Sweden). Vα24 positive T cells were stained with an anti-Vα24 monoclonal antibody (C15) (Coulter, Miami, Fla.) followed by a goat anti-mouse IgG (H^+L) FITC conjugate (KPL, Gaithersburg, Md.) and were sorted by high speed FACS (Modular Flow FACS, Cytomation, Boulder, Colo.) (Dellabona et al., J. Exp. Med. 180:1171, 1994). Autologous PBMCs were irradiated (5000 rads) and used as APCs. The FACS purified Vα24^+ cells were initially co-cultured in 96 well flat bottomed plates (approximately 20,000 per well) with equal numbers of autologous irradiated PBMCs in the presence of α-GalCer (50 ng/ml, KRN7000, Kirin Brewery Co., Gunma, Japan) and recombinant IL-2 (100 U/ml) (National Cancer Institute, Bethesda, Md.). Cultures were then gradually expanded into 24 well plates using the same medium. In some cultures, human recombinant IL-12 (1 ng/ml) (Genetics Institute, Cambridge, Mass.) was added during the last week of culture.
Phenotypic analysis of α-GalCer expanded cells was performed by two or three color flow cytometery after three to four weeks in culture. Previous reports have shown that dual staining for Vα24 and Vβ11 is a marker of invariant NK T cells, as Vα24 and Vβ11 are used very infrequently by bulk T cells (Dellabona et al., J. Exp. Med. 180:1171, 1994; Exley et al., J. Exp. Med. 186:109, 1997; Prussin and Foster J. Immunol. 159:5862, 1997). Antibodies used were anti-Vα24 PE, anti-Vβ11 FITC, anti-CD8β PE (Immunotech), anti-CD3 Cychrome, anti-CD161 PE, and anti-CD4 Cychrome (PharMingen, La Jolla, Calif.). As described previously (Exley et al., J. Exp. Med. 186:109, 1997; Exley et al., J. Exp. Med. 188:867, 1998), approximately 1×10^6 cells were suspended in 50 μl of FACS buffer (phosphate buffered saline with 1% fetal bovine serum and 0.1% NaN3) in single wells of 96 well plates (Exley et al., J. Exp. Med. 186:109, 1997; Exley et al, J. Exp. Med. 188:867, 1998). Non-specific antibody binding was blocked by pre-incubating cells with 10% human serum for 15 minutes on ice. Antibodies were then added to cell suspensions and incubated for 20 minutes on ice. Cells were washed twice with FACS buffer and analyzed using a FACScan (Becton Dickinson) with Cell Quest Software.
Due to the small numbers of invariant NK T cells in peripheral blood, one round of ex vivo expansion was carried out to further assess the frequency and function of these cells. Invariant NK T cells from healthy donors and advanced prostate cancer patients were isolated from peripheral blood through an initial FACS purification with a Vα24 specific monoclonal antibody, followed by selective expansion in vitro for three to four weeks with α-GalCer and autologous irradiated PBMCs as a source of APCs. T cells were then analyzed by dual staining with Vα24 and Vβ11 or 6B11 monoclonal antibodies.

invariant NK T cells = experiment: 6B11 FACS sort or magnetic bead immunoaffinity purification of PBMC followed by expansion; details: for Yield of invariant T cells: addition during expansion of 6B11 bead purified cells (FIGS. 12-17)
Protocol: Starting with PBMC in which approximately 0.05% of the lymphocytes in PBMC are invariant T cells, approximately 5-30% of the purified and expanded cells were invariant T cells.
PBMC or another tissue source is blocked with autologous serum at 4° C. An antibody reactive with invariant T cells (e.g., 6B11 or 3A6 antibody) is added at a ratio of about 1-10 μg antibody/10^7-8 PBMC and incubated for 20 minutes at 4° C. The antibody used in this method may be directly labeled with a conjugate such as FITC or biotin, or the antibody may be indirectly labeled with second reagent (e.g., anti-IgG-Fluorochrome or streptavidin-Fluorochrome). One or more other antibodies labeled with different fluorophores may also be added (FIGS. 7A-7C and 9). The solution of cells and antibodies is then washed using PBS or any other physiological buffer to remove unbound antibody.
If desired, the settings of the FACS cell sorter may be adjusted using either a positive (e.g., general anti-T cell antibody) or negative control antibody. The sample of interest may be analyzed at a rate of approximately 100 million cells per hour using a high speed FACS sorter (e.g., ‘MoFlo’FACS sorter). The purified T cells may be expanded in T cell media [e.g., 10% Fetal Bovine or human autologous or AB pooled serum in RPMI-1640 or equivalent media supplemented with buffer (e.g. Hepes), glutamine, and antibiotic (e.g., gentamicin)] in the presence of a mitogen such as PHA, an anti-CD3 antibody, the 6B11 antibody, the 3A6 antibody, and/or α-GalCer antigenic stimulus CD3 monoclonal antibody (Exley et al. 1997 and 1998, supra; Wilson et al., Nature 391:177, 1998). The antibody may be in solution or plate bound. Irradiated autologous feeders and IL-2 (10-100 U/ml) may also be added immediately or added at any time point during expansion. IL-7 (˜1-10 ng/ml) and/or IL-15 (˜1-10 ng/ml) may increase invariant NK T cells yields (e.g. Wilson et al. 1998, supra; van der Vliet et al. Journal of Immunological Methods 247:61-72, 2000). Dexamethasone or a related selective immune suppressive agent (˜1 μM) may preferentially enhance the growth of invariant NK T cells while inhibiting growth of conventional T cells (e.g. Milner et al., J. Immunol. 163(5):2522-25229, 1999). The media is replaced about twice a week with fresh media. During or subsequent to expansion (e.g., 2-4 weeks after expansion has begun), the T cells may be phenotypically analyzed by FACS. This analysis may be performed by staining with 6B11, anti-Vα24, anti-Vβ11, anti-CD4, anti-CD8αβ, or anti-CD161 antibodies.
PBMC or another tissue source is blocked with 1-10% autologous serum by mixing at 4° C. in PBS or other physiological buffer. One or more antibodies that are reactive with invariant T cells (e.g., 6B11 or 3A6 antibody) is added at a ratio of about 1-10 μg monoclonal antibody/10^7-8 PBMC is incubated for 20 minutes at 4° C. The antibody used in this method may be directly labeled with a conjugate such as FITC or biotin or the antibody may be indirectly labeled with second reagent (e.g., anti-IgG-Fluorochrome or streptavidin-Fluorochrome). One or more other antibodies labeled with different fluorophores may also be added (FIGS. 7A-7C and 9). The solution of cells and antibodies is then washed using PBS or any other physiological buffer. Magnetic beads, such as ˜10-100 μl Miltenyi MACS Microbeads Anti-mouse IgG #484 or MACS Steptavidin Microbeads #481 per 10^7-8 PBMC; 10^5-7 Dynal Anti-IgG #M450 beads per 10^7-8 PBMC are added and the solution is mix at 4° C. […] The washed, purified cells are placed into multi-wells with T cell media [10% Fetal Bovine or human autologous or AB pooled serum in RPMI-1640 or equivalent media supplemented with buffer (e.g. Hepes), glutamine, and antibiotic (e.g. gentamicin)]. The cells may be expanded using a monoclonal antibody that is directly bound to the beads or in solution. […]

[2] = tested on: CD1d-reactive Vα24^+Vβ11^+ T cell lines; experiment: Ex vivo expansion of invariant NK T cell lines with IL-12, stimulation with anti-CD3 and CD161 antibody; details: for IFN-γ / IL-4 / Proliferation: plate-bound anti-CD3 and excess CD161 antibody
Excerpt: NK T cells, CD1d-reactive T cells, or JαQ^+ T cells may be biased towards Th1-like NK or lymphokine-activated killer (LAK)-like cytotoxicity of invariant T cells, as well as, IFN-γ production to potentially augment their in vivo anti-tumor or anti-pathogen activity.

[3] = tested on: prostate cancer derived invariant NK T cells; experiment: IL-12 treatment of prostate cancer derived invariant NK T cells during last week of culture, cytokine ELISA
Protocol: as §1, with “Cultures were then gradually expanded into 24 well plates using the same medium. In some cultures, human recombinant IL-12 (1 ng/ml) (Genetics Institute, Cambridge, Mass.) was added during the last week of culture.” left out
In addition to being present at reduced levels, invariant NK T cells have reduced activity in prostate cancer patients. […] Released cytokine levels were determined in triplicates by capture ELISA with matched antibody pairs in relation to cytokine standards (Endogen, Inc. Cambridge, Mass.). […]
As invariant NK T cells may contribute to the anti-tumor effects of IL-12, it was next determined whether these cancer patient derived cells could respond to IL-12. […]

[4] = expansion using α-GalCer after expansion using 6B11
[5] = addition during expansion, at the concentrations tested (FIGS. 12-17)

`CCCCCCCCCCCCCCCCCCCCCCCCCC(=O)N[C@@H](CO[C@H]1O[C@H](CO)[C@H](O)[C@H](O)[C@H]1O)[C@H](O)[C@H](O)CCCCCCCCCCCCCC` [α-GalCer, α-galactosylceramide] was tested, and the “Invariant NK T cells among expanded cells” value ([1]; androgen ablation refractory prostate cancer patient (FIG. 21B)) was 13.6%, the “Invariant NK T cells among expanded cells” value ([1]; androgen ablation treated prostate cancer patient in remission (FIG. 21C)) was 75% and the “Invariant NK T cells among expanded cells” value ([1]; healthy donor (FIG. 21A)) was 98.5%. For the same molecule, the “Vα24^+ Vβ11^+ population of total cells” value ([1]; healthy donor, α-GalCer and autologous irradiated PBMCs (FIG. 20B)) was 94.4%, the “Recovery of Vα24^+ Vβ11^+ invariant NK T cells, mean” value ([1]; healthy donors (FIG. 21D)) was > 80% and the “Recovery of Vα24^+ Vβ11^+ invariant NK T cells, mean” value ([1]; series of advanced androgen independent prostate cancer patients (FIG. 21D)) was 10%. For the same molecule, the “Expanded Vα24^+ Vβ11^+ T cells expressing CD161” value ([1]; series of healthy donors, each donor) was > 70%, the “Number of invariant T cells” value (invariant NK T cells; [4]) was “did increase the number of invariant T cells” and the “Purity of invariant T cells” value (invariant NK T cells; [4]) was “did not improve the purity of invariant T cells”.

“IL-15: cytokine added to T cell medium at 10 ng/ml” was tested, and the “Yield of invariant T cells” value (invariant NK T cells) was “increased the yield of invariant T cells” and the “Purity of invariant T cells” value (invariant NK T cells; [5]) was “did not increase the purity of invariant T cells”.

With phytohemagglutinin [PHA] the “Vα24^+ Vβ11^+ T cell population after stimulation” value ([1]; FACS purified Vα24^+ T cells stimulated with mitogen (FIG. 20A)) was “yielded only a minor population of Vα24^+ Vβ11^+ T cells”.

B1: IL-7: cytokine added to T cell medium at 10 ng/ml (protein, UniProt P13232 26-177, looked up)
Interleukin-7: DCDIEGKDGKQYESVLMVSIDQLLDSMKEIGSNCLNNEFNFFKRHICDANKEGMFLFRAARKLRQFLKMNSTGDFDLHLLKVSEGTTILLNCTGQVKGRKPAALGEAQPTKSLEENKSLKEQKKLNDLCFLKRLLQEIKTCWNKILMGTKEH
With B1 the “Yield of invariant T cells” value (invariant NK T cells) was “increased the yield of invariant T cells” and the “Purity of invariant T cells” value (invariant NK T cells; [5]) was “did not increase the purity of invariant T cells”.

B2: IL-12: human recombinant IL-12 (Genetics Institute), cytokine biasing T cells towards Th1 responses (protein, UniProt P29459 23-219; P29460 23-328, looked up)
Interleukin-12 subunit alpha: RNLPVATPDPGMFPCLHHSQNLLRAVSNMLQKARQTLEFYPCTSEEIDHEDITKDKTSTVEACLPLELTKNESCLNSRETSFITNGSCLASRKTSFMMALCLSSIYEDLKMYQVEFKTMNAKLLMDPKRQIFLDQNMLAVIDELMQALNFNSETVPQKSSLEEPDFYKTKIKLCILLHAFRIRAVTIDRVMSYLNAS
Interleukin-12 subunit beta: IWELKKDVYVVELDWYPDAPGEMVVLTCDTPEEDGITWTLDQSSEVLGSGKTLTIQVKEFGDAGQYTCHKGGEVLSHSLLLLHKKEDGIWSTDILKDQKEPKNKTFLRCEAKNYSGRFTCWWLTTISTDLTFSVKSSRGSSDPQGVTCGAATLSAERVRGDNKEYEYSVECQEDSACPAAEESLPIEVMVDAVHKLKYENYTSSFFIRDIIKPDPPKNLQLKPLKNSRQVEVSWEYPDTWSTPHSYFSLTFCVQVQGKSKREKKDRVFTDKTSATVICRKNASISVRAQDRYYSSSWSEWASVPCS
B2 was tested, and the IFN-γ/IL-4 ([2]; line 1, established with IL-12) was >100, the IFN-γ ([2]; line 1, established with IL-12) was >500 and the IL-4 ([2]; line 1, established with IL-12) was 4.8. The Proliferation ([2]; line 1, established with IL-12) was 56593, the IFN-γ/IL-4 ([2]; line 2, established with IL-12) was 207 and the IFN-γ ([2]; line 2, established with IL-12) was 331.8. The IL-4 ([2]; line 2, established with IL-12) was 1.6, the Proliferation ([2]; line 2, established with IL-12) was 42499 and the IFN-γ production ([3]; 1 ng/ml during the last week of culture) was “marked increase in IFN-γ production”. For the same molecule, the “Ratios of IFN-γ/IL-4 production” value ([3]; 1 ng/ml during the last week of culture (FIG. 22E)) was “comparable to those in the healthy donors”.
